Measured values from PubChem BioAssay (NCI).
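Exposure lasted 48 hours, with cells grown in 96-well plates and compounds tested at five concentrations. Definition used: TGI = concentration required for complete inhibition of growth.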

Assays:
Assay in all cases: NCI anticancer screen, dose series, 48 h
SR leukemia = system: SR leukemia
SF-539 CNS = system: SF-539 CNS
M14 melanoma = system: M14 melanoma
IGROV1 ovarian = system: IGROV1 ovarian
BT-549 breast = system: BT-549 breast
SK-MEL-28 melanoma = system: SK-MEL-28 melanoma
MOLT-4 leukemia = system: MOLT-4 leukemia
EKVX NSCLC = system: EKVX NSCLC
MDA-MB-231 breast = system: MDA-MB-231 breast
HCT-116 colon = system: HCT-116 colon
RXF 393 renal = system: RXF 393 renal
RPMI-8226 leukemia = system: RPMI-8226 leukemia
HOP-62 NSCLC = system: HOP-62 NSCLC
786-0 renal = system: 786-0 renal
NCI-H23 lung = system: NCI-H23 lung
SW-620 colon = system: SW-620 colon
SK-MEL-2 melanoma = system: SK-MEL-2 melanoma
HS 578T breast = system: HS 578T breast
HCT-15 colon = system: HCT-15 colon
A498 renal = system: A498 renal
NCI/ADR-RES ovarian = system: NCI/ADR-RES ovarian
LOX IMVI melanoma = system: LOX IMVI melanoma
K-562 leukemia = system: K-562 leukemia
SF-295 CNS = system: SF-295 CNS
SK-OV-3 ovarian = system: SK-OV-3 ovarian
NCI-H226 lung = system: NCI-H226 lung
NCI-H522 lung = system: NCI-H522 lung
UO-31 renal = system: UO-31 renal
UACC-62 melanoma = system: UACC-62 melanoma
ACHN renal = system: ACHN renal
HCC-2998 colon = system: HCC-2998 colon
OVCAR-5 ovarian = system: OVCAR-5 ovarian
MALME-3M melanoma = system: MALME-3M melanoma
OVCAR-3 ovarian = system: OVCAR-3 ovarian
SF-268 CNS = system: SF-268 CNS
HT29 colon = system: HT29 colon
KM12 colon = system: KM12 colon
UACC-257 melanoma = system: UACC-257 melanoma
OVCAR-8 ovarian = system: OVCAR-8 ovarian
HL-60(TB) leukemia = system: HL-60(TB) leukemia
SK-MEL-5 melanoma = system: SK-MEL-5 melanoma
A549 NSCLC = system: A549 NSCLC
MDA-N = system: MDA-N
DU-145 prostate = system: DU-145 prostate
SNB-19 CNS = system: SNB-19 CNS
NCI-H460 lung = system: NCI-H460 lung
TK-10 renal = system: TK-10 renal
PC-3 prostate = system: PC-3 prostate
MCF7 breast = system: MCF7 breast
T-47D breast = system: T-47D breast
U251 CNS = system: U251 CNS
COLO 205 colon = system: COLO 205 colon
CCRF-CEM leukemia = system: CCRF-CEM leukemia
SN12C renal = system: SN12C renal
SNB-75 CNS = system: SNB-75 CNS
OVCAR-4 ovarian = system: OVCAR-4 ovarian
CAKI-1 renal = system: CAKI-1 renal
HOP-92 NSCLC = system: HOP-92 NSCLC
MDA-MB-435 = system: MDA-MB-435

CC(C)/C(Cl)=N\OC(=O)Nc1ccc(F)cc1
TGI (SR leukemia): 4.33 µM | TGI (SF-539 CNS): 32.8 µM | TGI (M14 melanoma): 16.1 µM | TGI (IGROV1 ovarian): 31.7 µM | TGI (BT-549 breast): 24.2 µM | TGI (SK-MEL-28 melanoma): 11.5 µM | TGI (MOLT-4 leukemia): 4.2 µM | TGI (EKVX NSCLC): 11.3 µM | TGI (MDA-MB-231 breast): 5.17 µM | TGI (HCT-116 colon): 22.6 µM | TGI (RXF 393 renal): 29.9 µM | TGI (RPMI-8226 leukemia): 4.19 µM | TGI (HOP-62 NSCLC): 33.4 µM | TGI (786-0 renal): 9.55 µM | TGI (NCI-H23 lung): 38.4 µM | TGI (SW-620 colon): 3.23 µM | TGI (SK-MEL-2 melanoma): 32.8 µM | TGI (HS 578T breast): 71.9 µM | TGI (HCT-15 colon): 12.9 µM | TGI (A498 renal): 28.5 µM | TGI (NCI/ADR-RES ovarian): > 48.5 µM | TGI (LOX IMVI melanoma): 5.73 µM | TGI (K-562 leukemia): 3.45 µM | TGI (SF-295 CNS): 27.8 µM | TGI (SK-OV-3 ovarian): 31.7 µM | TGI (NCI-H226 lung): 36.9 µM | TGI (NCI-H522 lung): 3.02 µM | TGI (UO-31 renal): 10.5 µM | TGI (UACC-62 melanoma): 40 µM | TGI (ACHN renal): 7.7 µM | TGI (HCC-2998 colon): 32 µM | TGI (OVCAR-5 ovarian): 30.4 µM | TGI (MALME-3M melanoma): 3.91 µM | TGI (OVCAR-3 ovarian): 21.6 µM | TGI (SF-268 CNS): 56.1 µM | TGI (HT29 colon): 4.6 µM | TGI (KM12 colon): 35.7 µM | TGI (UACC-257 melanoma): 28.3 µM | TGI (OVCAR-8 ovarian): 25.6 µM | TGI (HL-60(TB) leukemia): 3.72 µM | TGI (SK-MEL-5 melanoma): 26.4 µM | TGI (A549 NSCLC): 35.9 µM | TGI (MDA-N): 23.2 µM | TGI (DU-145 prostate): 30.7 µM | TGI (SNB-19 CNS): 39.3 µM | TGI (NCI-H460 lung): 36.1 µM | TGI (TK-10 renal): 9.06 µM | TGI (PC-3 prostate): 31.4 µM | TGI (MCF7 breast): 14.3 µM | TGI (T-47D breast): 24.1 µM | TGI (U251 CNS): 29 µM | TGI (COLO 205 colon): 4.42 µM | TGI (CCRF-CEM leukemia): 3.62 µM | TGI (SN12C renal): 16.7 µM

Cc1cc(C#N)c[n+](C)c1
TGI (SR leukemia): > 100 µM | TGI (SF-539 CNS): > 100 µM | TGI (M14 melanoma): > 100 µM | TGI (IGROV1 ovarian): > 100 µM | TGI (BT-549 breast): > 100 µM | TGI (SK-MEL-28 melanoma): > 100 µM | TGI (MOLT-4 leukemia): > 100 µM | TGI (EKVX NSCLC): > 100 µM | TGI (MDA-MB-231 breast): > 100 µM | TGI (HCT-116 colon): > 100 µM | TGI (RXF 393 renal): > 100 µM | TGI (HOP-62 NSCLC): > 100 µM | TGI (786-0 renal): > 100 µM | TGI (NCI-H23 lung): > 100 µM | TGI (SW-620 colon): > 100 µM | TGI (SK-MEL-2 melanoma): > 100 µM | TGI (HS 578T breast): > 100 µM | TGI (HCT-15 colon): > 100 µM | TGI (A498 renal): > 100 µM | TGI (NCI/ADR-RES ovarian): > 100 µM | TGI (K-562 leukemia): > 100 µM | TGI (SF-295 CNS): > 100 µM | TGI (SK-OV-3 ovarian): > 100 µM | TGI (NCI-H226 lung): > 100 µM | TGI (NCI-H522 lung): > 100 µM | TGI (SNB-75 CNS): > 100 µM | TGI (UO-31 renal): > 100 µM | TGI (UACC-62 melanoma): > 100 µM | TGI (ACHN renal): > 100 µM | TGI (HCC-2998 colon): > 100 µM | TGI (OVCAR-5 ovarian): > 100 µM | TGI (MALME-3M melanoma): > 100 µM | TGI (OVCAR-3 ovarian): > 100 µM | TGI (SF-268 CNS): > 100 µM | TGI (HT29 colon): > 100 µM | TGI (KM12 colon): > 100 µM | TGI (OVCAR-4 ovarian): > 100 µM | TGI (CAKI-1 renal): > 100 µM | TGI (UACC-257 melanoma): > 100 µM | TGI (OVCAR-8 ovarian): > 100 µM | TGI (HL-60(TB) leukemia): > 100 µM | TGI (SK-MEL-5 melanoma): > 100 µM | TGI (A549 NSCLC): > 100 µM | TGI (MDA-N): > 100 µM | TGI (DU-145 prostate): > 100 µM | TGI (SNB-19 CNS): > 100 µM | TGI (NCI-H460 lung): > 100 µM | TGI (TK-10 renal): > 100 µM | TGI (PC-3 prostate): > 100 µM | TGI (MCF7 breast): > 100 µM | TGI (T-47D breast): > 100 µM | TGI (U251 CNS): > 100 µM | TGI (COLO 205 colon): > 100 µM | TGI (CCRF-CEM leukemia): > 100 µM | TGI (SN12C renal): > 100 µM

CC1(F)C=CC(=O)C=C1
TGI (SR leukemia): > 100 µM | TGI (SF-539 CNS): > 100 µM | TGI (M14 melanoma): > 100 µM | TGI (BT-549 breast): > 100 µM | TGI (SK-MEL-28 melanoma): > 100 µM | TGI (MOLT-4 leukemia): > 100 µM | TGI (EKVX NSCLC): > 100 µM | TGI (MDA-MB-231 breast): > 100 µM | TGI (HCT-116 colon): > 100 µM | TGI (RPMI-8226 leukemia): > 100 µM | TGI (HOP-62 NSCLC): > 100 µM | TGI (786-0 renal): 35 µM | TGI (NCI-H23 lung): > 100 µM | TGI (SW-620 colon): 42.3 µM | TGI (SK-MEL-2 melanoma): > 100 µM | TGI (HS 578T breast): > 100 µM | TGI (HCT-15 colon): 45.7 µM | TGI (A498 renal): > 100 µM | TGI (NCI/ADR-RES ovarian): 34.8 µM | TGI (LOX IMVI melanoma): 31.4 µM | TGI (HOP-92 NSCLC): 72.1 µM | TGI (K-562 leukemia): > 100 µM | TGI (SF-295 CNS): > 100 µM | TGI (SK-OV-3 ovarian): > 100 µM | TGI (NCI-H226 lung): > 100 µM | TGI (NCI-H522 lung): > 100 µM | TGI (SNB-75 CNS): > 100 µM | TGI (UO-31 renal): > 100 µM | TGI (UACC-62 melanoma): > 100 µM | TGI (ACHN renal): > 100 µM | TGI (HCC-2998 colon): > 100 µM | TGI (OVCAR-5 ovarian): > 100 µM | TGI (MALME-3M melanoma): 68.9 µM | TGI (OVCAR-3 ovarian): > 100 µM | TGI (SF-268 CNS): > 100 µM | TGI (HT29 colon): > 100 µM | TGI (KM12 colon): > 100 µM | TGI (MDA-MB-435): > 100 µM | TGI (OVCAR-4 ovarian): > 100 µM | TGI (CAKI-1 renal): > 100 µM | TGI (UACC-257 melanoma): > 100 µM | TGI (OVCAR-8 ovarian): 42.7 µM | TGI (HL-60(TB) leukemia): 93.1 µM | TGI (SK-MEL-5 melanoma): > 100 µM | TGI (A549 NSCLC): > 100 µM | TGI (MDA-N): > 100 µM | TGI (DU-145 prostate): > 100 µM | TGI (SNB-19 CNS): > 100 µM | TGI (NCI-H460 lung): > 100 µM | TGI (TK-10 renal): > 100 µM | TGI (PC-3 prostate): > 100 µM | TGI (MCF7 breast): > 100 µM | TGI (U251 CNS): > 100 µM | TGI (COLO 205 colon): > 100 µM | TGI (CCRF-CEM leukemia): > 100 µM | TGI (SN12C renal): > 100 µM
